Test results from patent US20210322469A1, “ZINC AND COPPER FOR THE PROPHYLAXIS AND TREATMENT OF COVID-19” (Regents of the University of Minnesota, priority 2020, published 2021).
Read-outs that look alike come from different tables or passages of the source.

Experiments:
SARS-CoV-2 = format: in vivo; conditions: patients receiving zinc prophylactically for AMD or for treatment of AMD
[1] = target: angiotensin converting enzyme 2 (ACE2) (Homo sapiens, UniProt Q9BYF1); conditions: Speth et al. 2014, cited from earlier work
Sequence of angiotensin converting enzyme 2 (ACE2) (Q9BYF1 18-805): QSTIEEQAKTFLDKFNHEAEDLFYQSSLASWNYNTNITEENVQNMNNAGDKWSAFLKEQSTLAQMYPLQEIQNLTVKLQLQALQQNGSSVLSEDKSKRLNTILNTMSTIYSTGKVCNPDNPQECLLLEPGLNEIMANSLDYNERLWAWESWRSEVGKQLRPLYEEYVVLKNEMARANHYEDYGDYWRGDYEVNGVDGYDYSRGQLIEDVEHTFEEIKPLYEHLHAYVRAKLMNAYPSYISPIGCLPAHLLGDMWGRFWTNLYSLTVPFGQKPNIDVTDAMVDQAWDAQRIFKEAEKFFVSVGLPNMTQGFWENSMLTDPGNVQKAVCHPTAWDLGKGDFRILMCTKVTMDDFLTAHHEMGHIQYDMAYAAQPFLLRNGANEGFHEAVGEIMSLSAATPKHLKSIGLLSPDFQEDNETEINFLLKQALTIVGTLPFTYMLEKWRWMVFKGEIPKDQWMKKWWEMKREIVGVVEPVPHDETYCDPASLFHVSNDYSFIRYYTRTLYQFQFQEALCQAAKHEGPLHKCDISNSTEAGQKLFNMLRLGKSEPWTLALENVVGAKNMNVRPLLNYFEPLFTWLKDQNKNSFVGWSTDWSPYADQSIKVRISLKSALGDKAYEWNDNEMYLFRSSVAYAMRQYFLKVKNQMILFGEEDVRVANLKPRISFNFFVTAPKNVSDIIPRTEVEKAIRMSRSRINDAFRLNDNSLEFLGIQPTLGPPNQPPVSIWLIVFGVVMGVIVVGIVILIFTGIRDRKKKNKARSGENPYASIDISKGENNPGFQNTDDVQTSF

## zinc
SARS-CoV-2
  COVID-19-related deaths: no COVID-19-related deaths
[1]
  inhibition of ACE2 function: inhibitor of ACE2 function
[1]; listed as Zinc
  inhibition of ACE2 function: can inhibit the function of ACE2
